Laboratory results taken from US20120035069A1, “PROGNOSIS OF BREAST CANCER PATIENTS BY MONITORING THE EXPRESSION OF TWO GENES” (priority 2009, published 2012).

Tests used:
MDA-MB-231 cells [1] = assay: Transwell migration assay; type: cell-based, human; conditions: control MDA-MB-231 cells; TGFβ1 5 ng/ml
Method: Transwell migration assay were performed in 24 well PET inserts (Falcon […] pore size) for migration assays. For MDA-MB-231, cells were plated in 10 cm dishes, transfected with siRNA and, after 8 hours, serum starved overnight. Then, 50000 or 100000 cells were plated in transwell inserts (at least 3 replicas for each sample) and either left untreated or treated with TGFβ1 (5 ng/ml). For H1299, cells is were plated in the transwell in 10% serum but then changed to 0.2% serum. For both cell lines, cells in the upper part of the transwells were removed with a cotton swab; migrated cells were fixed in PFA 4% and stained with Crystal Violet 0.5%. Filters were photographed and the total number of cells counted. Every experiment was repeated at least 3 times independently.

MDA-MB-231 cells [2] = assay: Matrigel invasion (evasion) assay; type: cell-based, human; conditions: SB431542 5 μM; control MDA-MB-231 cells embedded in a drop of Matrigel
Method: (C) Assay for invasive activity of MDA-MB-231 cells embedded in a drop of matrigel. Panels show pictures of the same field at different time points. Dotted is lines highlight the edges of the drop. Only control cells are able to evade from the Matrigel® (arrows). This process is dependent on TGFβ signaling as it is blocked by treatment with the TGFβR1 inhibitor SB431542 (5 μM). MDA shp53 cells are impaired in matrix degradation and evasion.
For matrigel invasion assay shown in FIG. 2C, MDA-MB-231 and derivative cell lines were resuspended in drops ([…]) of Matrigel Growth Factor Reduced (BD Biosciences), diluted 1:2 in DMEM/F12.

| Compound | migration through transwell in response to TGFβ (MDA-MB-231 cells [1]) | evasion of cells from the Matrigel drop (TGFβ-dependent invasive activity) (MDA-MB-231 cells [2]) |
| --- | --- | --- |
| TGFβ: TGFβ provided from Peprotech, used to treat cells | potent promigratory response | – |
| NC(=O)c1ccc(-c2nc(-c3ccc4c(c3)OCO4)c(-c3ccccn3)[nH]2)cc1 [SB431542] | – | blocked |
